# Reference: patent US20180106727A1, “ULTRA-HIGH-SENSITIVE ASSAY OF PROTEIN AND NUCLEIC ACID AND KIT, AND NOVEL ENZYME SUBSTRATE” (priority 2011, published 2018)
# Like-named read-outs stand apart in the source and are kept apart here.
# What was measured:
# [1] = target: β-galactosidase (Escherichia coli, UniProt P00722); conditions: β-Gal assay
# Method: 0.1 M pyrophosphate buffer solution (pH 9.0); 1.2 mM thio-NAD; 3.6 mM NADH; 40 U/mL 3α-hydroxysteroid dehydrogenase
# To a flat-bottomed microplate well, 25 μL of a phosphate buffer solution (pH 7.3) containing the standard substance (β-galactosidase) in a range of 0 to 200 pg/ml was added, and subsequently, 25 μL of Reaction Test Solution A was added to the well, respectively. The reaction solution was mixed, and the microplate was incubated at 37° C. for 60 minutes. Then, 50 μL of Reaction Test Solution B was added to each well, respectively, and the absorbance was measured for 30 minutes using a 405 nm filter with a microplate reader (MTP-500 manufactured by CORONA CORPORATION) while warming the microplate to 37° C. The amount of the absorbance change for 30 minutes was plotted with respect to the concentrations of the standard substance.
# To a flat-bottomed microplate well, 50 μL of a phosphate buffer solution (pH 7.7) containing the standard substance (β-galactosidase) in a range of 0 to 250 pg/ml was added, and subsequently, 50 μL of Reaction Test Solution was added to each well, respectively. The absorbance was measured for 120 minutes using a 405 nm filter with a microplate reader (MTP-500 manufactured by CORONA CORPORATION) while warming the microplate to 37° C. The amount of the absorbance change for 120 minutes was plotted with respect to the concentrations of the standard substance.
# 0.1 M pyrophosphate buffer solution (pH 9.0); 4.8 mM thio-NAD; 0.4 mM NADH; 40 U/mL 3α-hydroxysteroid dehydrogenase
# To a flat-bottomed microplate well, 25 μL of a phosphate buffer solution (pH 7.5) containing the standard substance (β-galactosidase) in a range of 0 to 200 pg/mL was added, and subsequently, 25 μL of Reaction Test Solution A was added to the well, respectively. The reaction solution was mixed, and the microplate was incubated at 37° C. for 60 minutes. Then, 50 μL of Reaction Test Solution B was added to each well, respectively, and the absorbance was measured for 30 minutes using a 405 nm filter with a microplate reader (MTP-500 manufactured by CORONA CORPORATION) while warming the microplate to 37° C. The amount of the absorbance change for 30 minutes was plotted with respect to the concentrations of the standard substance.
# 0.1 M pyrophosphate buffer solution (pH 9.8); 1.2 mM thio-NAD; 1 mM NADH; 40 U/mL 3α-hydroxysteroid dehydrogenase
# To a flat-bottomed microplate well, 25 μL of a phosphate buffer solution (pH 7.5) containing the standard substance (β-galactosidase) in a range of 0 to 200 pg/mL was added, and subsequently, 25 μL of Reaction Test Solution A was added to the well, respectively. The reaction solution was mixed, and the microplate was incubated at 37° C. for 60 minutes.
# [2] = tested on: 3α-hydroxysteroid dehydrogenase; assay: Rotation numbers of thio-NAD cycling reactions with 3α-hydroxyandrostanes; format: biochemical
# Method: The cycling system using thio-NAD(P) in the enzymatic cycling system is a unique cycling system that appeared relatively recently. With this system, the cycling is performed that is, thio-NAD(P)/thio-NAD(P)H using dehydrogenase (DH) with NAD(P)/NAD(P)H as a co-enzyme under conditions of coexistence of NAD(P)/NAD(P)H and its analog, and the amplification and the quantification are performed with thio-NAD(P)H (maximum absorption wavelength: 400 nm, molar absorption coefficient=11,900) as a substrate of dehydrogenase. The principle for measurement of the thio-NAD(P)cycling system is as described below.
# [3] = tested on: 3α-hydroxysteroid dehydrogenase; assay: Dehydrogenation reaction of androsterone, reaction rate with thio-NAD versus NAD as co-enzyme; format: biochemical
# Source text: The substrate for the cycling is preferably those having fast enzyme reaction rate (having high activity for the substrate) and reacting even at a low concentration (having low Km value). In addition, a desirable property as the dehydrogenase is the reaction rate when using thio-NAD(P) as a co-enzyme. In the dehydrogenation reaction of androsterone by other many dehydrogenases, the reaction rate when thio-NAD is used as a co-enzyme is within several % of the reaction rate when NAD is used, while with 3α-hydroxysteroid dehydrogenase, the reaction rate with thio-NAD is about 59% of the reaction rate with NAD. Thus, 3α-hydroxysteroid dehydrogenase has a desirable property as the cycling enzyme of the present invention. Furthermore, widely used alkaline phosphatase (ALP) can be used as the labeling enzyme to be combined, and the combination with alkaline phosphatase is preferable also in a point of easy synthesis of a phosphate ester of an androsterone derivative at the position 3 that is a substrate of alkaline phosphatase.
# [4] = relative to 5α-Androsterone = 100
# [5] = thio-NAD cycling, compound as substrate
# [6] = conventional substrate, no cycling method printed
# Sequence of β-galactosidase (P00722 2-1024): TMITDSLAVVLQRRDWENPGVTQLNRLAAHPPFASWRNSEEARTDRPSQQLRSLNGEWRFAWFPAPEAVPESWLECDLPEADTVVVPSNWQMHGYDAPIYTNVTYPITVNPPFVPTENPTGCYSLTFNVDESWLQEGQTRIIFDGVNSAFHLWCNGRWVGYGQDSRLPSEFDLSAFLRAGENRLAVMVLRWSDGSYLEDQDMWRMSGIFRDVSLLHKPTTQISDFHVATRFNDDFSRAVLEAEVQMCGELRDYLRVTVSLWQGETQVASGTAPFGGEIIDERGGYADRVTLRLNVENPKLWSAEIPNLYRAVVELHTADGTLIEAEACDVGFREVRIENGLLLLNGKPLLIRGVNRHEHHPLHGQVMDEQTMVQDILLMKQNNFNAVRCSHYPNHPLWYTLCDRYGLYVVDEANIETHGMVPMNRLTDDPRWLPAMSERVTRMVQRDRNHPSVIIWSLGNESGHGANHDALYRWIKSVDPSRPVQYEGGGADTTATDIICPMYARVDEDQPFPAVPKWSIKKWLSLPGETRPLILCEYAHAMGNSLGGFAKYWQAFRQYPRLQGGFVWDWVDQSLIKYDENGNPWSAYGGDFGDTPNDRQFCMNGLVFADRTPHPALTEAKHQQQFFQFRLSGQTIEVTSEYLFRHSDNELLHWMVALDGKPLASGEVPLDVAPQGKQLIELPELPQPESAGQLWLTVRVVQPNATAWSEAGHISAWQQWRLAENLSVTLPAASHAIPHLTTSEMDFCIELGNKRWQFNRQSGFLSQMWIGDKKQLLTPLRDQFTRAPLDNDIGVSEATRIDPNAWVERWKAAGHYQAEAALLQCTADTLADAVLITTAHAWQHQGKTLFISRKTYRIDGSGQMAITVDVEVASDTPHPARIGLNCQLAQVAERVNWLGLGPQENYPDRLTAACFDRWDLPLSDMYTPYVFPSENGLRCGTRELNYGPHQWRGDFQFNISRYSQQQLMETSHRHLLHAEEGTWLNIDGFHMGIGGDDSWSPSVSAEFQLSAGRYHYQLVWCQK
smiles,measurement,setting,value
CO[C@H]1CC[C@H]2[C@@H]3CC[C@@H]4C[C@H](O[C@@H]5O[C@H](CO)[C@H](O)[C@H](O)[C@H]5O)CC[C@]4(C)[C@H]3CC[C@]12C [17-OMe 5β-AG],Detection limit,[1]; One-step,3.21e-19 mol
same,Quantification limit,[1]; One-step,1.07e-18 mol
same,Detection limit,[1]; Two-steps,1.09e-19 mol
same,Quantification limit,[1]; Two-steps,3.64e-19 mol
"C[C@]12CC[C@@H](O[C@@H]3O[C@H](CO)[C@H](O)[C@H](O)[C@H]3O)C[C@@H]1CC[C@@H]1[C@@H]2CC[C@]2(C)C(=O)CC[C@@H]12 [5α-AG, 5α-androsterone 3-β-galactoside]",Detection limit,[1]; Two-steps,3.89e-19 mol
same,Quantification limit,[1]; Two-steps,1.3e-18 mol
"C[C@]12CC[C@@H](O)C[C@@H]1CC[C@@H]1[C@@H]2CC[C@]2(C)C(=O)CC[C@@H]12 [5α-Androsterone, reference compound]","Rotation number, Relative value (%)",[2],100%
"C[C@]12CCC(=O)C[C@@H]1CC[C@@H]1[C@@H]2CC[C@]2(C)[C@@H](O)CC[C@@H]12 [5α-DHT, 5α-Dihydrotestosterone, reference compound]",Rotation number of cycling reaction,[2],535 Cycle/min
same,"Rotation number, Relative value (%)",[2],86%
"C[C@]12CC[C@@H](O)C[C@H]1CC[C@@H]1[C@@H]2CC[C@]2(C)C(=O)CC[C@@H]12 [5β-Androsterone, reference compound]",Rotation number of cycling reaction,[2],384 Cycle/min
same,"Rotation number, Relative value (%)",[2],62%
"C[C@@]12CCC[C@H]1[C@@H]1CC[C@H]3C[C@H](O)CC[C@]3(C)[C@H]1CC2 [5α-17-deoxo, 3α-Hydroxy-5α-Androstane]","Rotation number, Relative value (%)",[2]; [4],39%
same,Rotation number of cycling reaction,[2]; [5],241 Cycle/min
"O=[N+]([O-])c1ccccc1O[C@@H]1O[C@H](CO)[C@H](O)[C@H](O)[C@H]1O [ONPG, o-Nitrophenyl β-D-Galactopyranoside, reference compound]",Detection limit,[1]; [6],4.5e-17 mol
same,Quantification limit,[1]; [6],1.5e-16 mol
"C=C1CC[C@H]2[C@@H]3CC[C@H]4C[C@H](O)CC[C@]4(C)[C@H]3CC[C@]12C [5α-17-CH2, 3α-Hydroxy-17-methylene-5α-Androstane]","Rotation number, Relative value (%)",[2]; [4],49%
same,Rotation number of cycling reaction,[2]; [5],308 Cycle/min
"C[C@H]1CC[C@H]2[C@@H]3CC[C@@H]4C[C@H](O)CC[C@]4(C)[C@H]3CC[C@]12C [5β-17-CH3, 3α-Hydroxy-17β-methyl-5β-Androstane]","Rotation number, Relative value (%)",[2]; [4],18%
same,Rotation number of cycling reaction,[2]; [5],114 Cycle/min
"C[C@]12CC[C@@H](OP(=O)(O)O)C[C@@H]1CC[C@@H]1[C@@H]2CC[C@]2(C)C(=O)CC[C@@H]12 [androsterone 3-phosphate, reference compound]",Effect of the substrate on the cycling reaction,[2],inhibition of the substrate on the cycling reaction
"C[C@H](CCC(=O)NCC(=O)O)[C@H]1CC[C@H]2[C@@H]3[C@H](O)C[C@@H]4C[C@H](O)CC[C@]4(C)[C@H]3CC[C@]12C [Glycochenodeoxycholate, Sodium glycochenodoxycholate, reference compound]","Rotation number, Relative value (%)",[2]; [4],21%
same,Rotation number of cycling reaction,[2]; [5],129 Cycle/min
"C[C@]12CC[C@@H](O[C@@H]3O[C@H](CO)[C@H](O)[C@H](O)[C@H]3O)C[C@H]1CC[C@@H]1[C@@H]2CC[C@]2(C)C(=O)CC[C@@H]12 [5β-AG, 5β-Androsterone-3β-D-Galactoside]",Detection limit,[1]; One-step,3.31e-19 mol
same,Quantification limit,[1]; One-step,1.1e-18 mol
same,Detection limit,[1]; Two-steps,7.48e-20 mol
same,Quantification limit,[1]; Two-steps,2.49e-19 mol
NC(=S)c1ccc[n+]([C@@H]2O[C@H](COP(=O)([O-])OP(=O)(O)OC[C@H]3O[C@@H](n4cnc5c(N)ncnc54)[C@H](O)[C@@H]3O)[C@@H](O)[C@H]2O)c1 [thio-NAD],Reaction rate with thio-NAD relative to the reaction rate with NAD,[3],about 59%
"C[C@H]1CC[C@H]2[C@@H]3CC[C@H]4C[C@H](O)CC[C@]4(C)[C@H]3CC[C@]12C [5α-17-CH3, 3α-Hydroxy-17β-methyl-5α-Androstane]","Rotation number, Relative value (%)",[2]; [4],32%
same,Rotation number of cycling reaction,[2]; [5],200 Cycle/min
CO[C@H]1CC[C@H]2[C@@H]3CC[C@@H]4C[C@H](O)CC[C@]4(C)[C@H]3CC[C@]12C [5β-17β-OCH3],"Rotation number, Relative value (%)",[2]; [4],74%
same,Rotation number of cycling reaction,[2]; [5],458 Cycle/min
"Cc1cc(=O)oc2cc(O[C@@H]3O[C@H](CO)[C@H](O)[C@H](O)[C@H]3O)ccc12 [4-MUG, reference compound]",Detection limit,[1]; [6],9.76e-18 mol
same,Quantification limit,[1]; [6],3.25e-17 mol
